From patent US20160136120A1, “TRANSDERMAL DELIVERY KITS” (ASCLEMED USA, INC. dba EnovaChem Manufacturing, priority 2013, published 2016) come the findings set out here.

The series in a line: Stability tests of API mixed with Microderm base, stored in a jar with closed lid (LC-UV assay). The class given is physicochemical. As to conditions: as illustrated in the stability studies. The procedure:
The stability tests were carried out by mixing the API (USP strength) with Microderm™, and placing the resulting composition in ajar with a closed lid.
Column: 4.6-mm×25.0-cm; 5-μm packing L1
Storage condition: 20° C. to 25° C. (68° F. to 77° F.)

Consider `NCC(CC(=O)O)c1ccc(Cl)cc1` (stereo not drawn) [Baclofen, β-(4-chlorophenyl)-γ-aminobutyric acid], for which the Susceptibility to degradation entry is reported as “particularly susceptible to degradation”.
